# What was measured:
# common pursiane = assay: Test D common purslane; type: in vivo, Portulaca oleracea; details: Postemergence, 0 to 100 scale
# common groundsel = assay: Test D common groundsel; type: in vivo, Senecio vulgaris; details: Postemergence, 0 to 100 scale
# goosegrass = assay: Test D goosegrass; type: in vivo, Eleusine indica; details: Postemergence, 0 to 100 scale
# guineagrass = assay: Test D guineagrass; type: in vivo, Panicum maximum; details: Postemergence, 0 to 100 scale
# Johnson grass = assay: Test D Johnson grass; type: in vivo, Sorghum halepense; details: Postemergence, 0 to 100 scale
# pitted morningglory = assay: Test D pitted morningglory; type: in vivo, Ipomoea lacunosa; details: Postemergence, 0 to 100 scale
# Spanishneedles = assay: Test D Spanishneedles; type: in vivo, Bidens bipinnata; details: Postemergence, 0 to 100 scale
# surinam grass = assay: Test D surinam grass; type: in vivo, Brachiaria decumbens; details: Postemergence, 0 to 100 scale
# tall mallow = assay: Test D tall mallow; type: in vivo, Malva sylvestris; details: Postemergence, 0 to 100 scale
# Green foxtail = assay: Test D green foxtail; type: in vivo; details: Postemergence, 0 to 100 scale, 0 no injury, 100 complete control
# [1] = Rate 16 g/ha, 0 no injury, 100 complete control
# [2] = Rate 32 g/ha, 0 no injury, 100 complete control
# [3] = Rate 64 g/ha, 0 no injury, 100 complete control
# [4] = Rate 125 g/ha, 0 no injury, 100 complete control
smiles,measurement,setting,value
COCC(C)n1c(=O)on(C(=O)N(c2ccc(F)cc2F)C(C)C)c1=O (stereo not shown) [Compound 352],"Plant response rating, C. purslane",common pursiane; [1],0
same,"Plant response rating, C. purslane",common pursiane; [2],0
same,"Plant response rating, C. purslane",common pursiane; [3],0
same,"Plant response rating, C. purslane",common pursiane; [4],0
same,"Plant response rating, C. purslane",common pursiane; Rate 250 g/ha,0
same,"Plant response rating, Com. groundsel",common groundsel; [2],0
same,"Plant response rating, Com. groundsel",common groundsel; [3],50
same,"Plant response rating, Com. groundsel",common groundsel; [4],100
same,"Plant response rating, Com. groundsel",common groundsel; Rate 250 g/ha,100
same,"Plant response rating, Goosegrass",goosegrass; [1],0
same,"Plant response rating, Goosegrass",goosegrass; [2],90
same,"Plant response rating, Goosegrass",goosegrass; [3],100
same,"Plant response rating, Goosegrass",goosegrass; [4],100
same,"Plant response rating, Goosegrass",goosegrass; Rate 250 g/ha,100
same,"Plant response rating, Guineagrass",guineagrass; [1],0
same,"Plant response rating, Guineagrass",guineagrass; [2],0
same,Guineagrass plant response rating,guineagrass; [3],20
same,"Plant response rating, Guineagrass",guineagrass; [3],60
same,"Plant response rating, Guineagrass",guineagrass; [4],80
same,"Plant response rating, Guineagrass",guineagrass; Rate 250 g/ha,100
same,Plant response rating Johnsongrass,Johnson grass; [1],0
same,Plant response rating Johnsongrass,Johnson grass; [2],0
same,Plant response rating Johnsongrass,Johnson grass; [3],0
same,Plant response rating Johnsongrass,Johnson grass; [4],40
same,Plant response rating Johnsongrass,Johnson grass; Rate 250 g/ha,80
same,"Plant response rating, P. morninglory",pitted morningglory; [1],0
same,"Plant response rating, P. morninglory",pitted morningglory; [2],0
same,"Plant response rating, P. morninglory",pitted morningglory; [3],0
same,"Plant response rating, P. morninglory",pitted morningglory; [4],0
same,"Plant response rating, P. morninglory",pitted morningglory; Rate 250 g/ha,0
same,"Plant response rating, Spanishneedles",Spanishneedles; [1],0
same,"Plant response rating, Spanishneedles",Spanishneedles; [2],0
same,Spanishneedles plant response rating,Spanishneedles; [3],0
same,Spanishneedles plant response rating,Spanishneedles; [4],40
same,"Plant response rating, Spanishneedles",Spanishneedles; Rate 250 g/ha,30
same,"Plant response rating, Surinam grass",surinam grass; [1],0
same,"Plant response rating, Surinam grass",surinam grass; [2],0
same,Surinam grass plant response rating,surinam grass; [3],30
same,Surinam grass plant response rating,surinam grass; [4],70
same,"Plant response rating, Surinam grass",surinam grass; Rate 250 g/ha,100
same,"Plant response rating, Tall Mallow",tall mallow; [1],0
same,"Plant response rating, Tall Mallow",tall mallow; [2],0
same,Tall Mallow plant response rating,tall mallow; [3],30
same,Tall Mallow plant response rating,tall mallow; [4],30
same,"Plant response rating, Tall Mallow",tall mallow; Rate 250 g/ha,20
same,"Plant response rating, Green foxtail",Green foxtail; Rate 16 g/ha,0
same,"Plant response rating, Green foxtail",Green foxtail; Rate 32 g/ha,100
CC(C)N(C(=O)n1oc(=O)n(C2(C)CC2)c1=O)c1ccccc1 [Compound 360],"Plant response rating, C. purslane",common pursiane; [1],0
same,"Plant response rating, C. purslane",common pursiane; [2],0
same,"Plant response rating, C. purslane",common pursiane; [3],0
same,"Plant response rating, C. purslane",common pursiane; [4],0
same,"Plant response rating, C. purslane",common pursiane; Rate 250 g/ha,0
same,"Plant response rating, Com. groundsel",common groundsel; [3],0
same,"Plant response rating, Com. groundsel",common groundsel; [4],100
same,"Plant response rating, Com. groundsel",common groundsel; Rate 250 g/ha,100
same,"Plant response rating, Goosegrass",goosegrass; [1],20
same,"Plant response rating, Goosegrass",goosegrass; [2],100
same,"Plant response rating, Goosegrass",goosegrass; [3],100
same,"Plant response rating, Goosegrass",goosegrass; [4],100
same,"Plant response rating, Goosegrass",goosegrass; Rate 250 g/ha,100
same,"Plant response rating, Guineagrass",guineagrass; [1],0
same,"Plant response rating, Guineagrass",guineagrass; [2],100
same,Guineagrass plant response rating,guineagrass; [3],100
same,"Plant response rating, Guineagrass",guineagrass; [4],100
same,"Plant response rating, Guineagrass",guineagrass; Rate 250 g/ha,100
same,Plant response rating Johnsongrass,Johnson grass; [1],0
same,Plant response rating Johnsongrass,Johnson grass; [2],0
same,Plant response rating Johnsongrass,Johnson grass; [3],0
same,Plant response rating Johnsongrass,Johnson grass; [4],50
same,Plant response rating Johnsongrass,Johnson grass; Rate 250 g/ha,70
same,"Plant response rating, P. morninglory",pitted morningglory; [1],0
same,"Plant response rating, P. morninglory",pitted morningglory; [2],0
same,"Plant response rating, P. morninglory",pitted morningglory; [3],0
same,"Plant response rating, P. morninglory",pitted morningglory; [4],0
same,"Plant response rating, P. morninglory",pitted morningglory; Rate 250 g/ha,10
same,"Plant response rating, Spanishneedles",Spanishneedles; [1],0
same,Spanishneedles plant response rating,Spanishneedles; [3],0
same,Spanishneedles plant response rating,Spanishneedles; [4],0
same,"Plant response rating, Spanishneedles",Spanishneedles; Rate 250 g/ha,20
same,"Plant response rating, Surinam grass",surinam grass; [1],0
same,"Plant response rating, Surinam grass",surinam grass; [2],0
same,Surinam grass plant response rating,surinam grass; [3],100
same,Surinam grass plant response rating,surinam grass; [4],90
same,"Plant response rating, Surinam grass",surinam grass; Rate 250 g/ha,100
same,"Plant response rating, Tall Mallow",tall mallow; [1],0
same,"Plant response rating, Tall Mallow",tall mallow; [2],0
same,Tall Mallow plant response rating,tall mallow; [3],40
same,Tall Mallow plant response rating,tall mallow; [4],60
same,"Plant response rating, Tall Mallow",tall mallow; Rate 250 g/ha,90
same,"Plant response rating, Green foxtail",Green foxtail; Rate 16 g/ha,0
same,"Plant response rating, Green foxtail",Green foxtail; Rate 32 g/ha,70
